According to patent US10065970B2 (Genentech, Inc., priority 2015, dated 2018):
Read-outs that look alike come from different tables or passages of the source.

Molecular target: PI3Kα (alpha) (Homo sapiens (Human), UniProt P42336)
Experiment: p110α (alpha) PI3K Binding Assay (ADP-Glo lipid kinase reaction)
Type: biochemical
Conditions: read-out: PI3Kα-(alpha) ATP (Ki) micromolar
Outline: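 Enzyme with PIP2:3PS lipid substrate and ATP/MgCl2 in 50 mM HEPES, 50 mM NaCl, 3 mM MgCl2, 0.01% BSA, 1% DMSO, 120 min at room temperature. ADP formed detected by ADP-Glo luminescence. Ki from 10-point dose-response curves via the Morrison equation.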

[1] = PI3K alpha 0.2 nM, ATP 40 μM, PIP2:3PS 50 μM, 120 min, room temperature, Ki by Morrison Equation

PI3Kα (alpha), sequence (P42336 whole entry): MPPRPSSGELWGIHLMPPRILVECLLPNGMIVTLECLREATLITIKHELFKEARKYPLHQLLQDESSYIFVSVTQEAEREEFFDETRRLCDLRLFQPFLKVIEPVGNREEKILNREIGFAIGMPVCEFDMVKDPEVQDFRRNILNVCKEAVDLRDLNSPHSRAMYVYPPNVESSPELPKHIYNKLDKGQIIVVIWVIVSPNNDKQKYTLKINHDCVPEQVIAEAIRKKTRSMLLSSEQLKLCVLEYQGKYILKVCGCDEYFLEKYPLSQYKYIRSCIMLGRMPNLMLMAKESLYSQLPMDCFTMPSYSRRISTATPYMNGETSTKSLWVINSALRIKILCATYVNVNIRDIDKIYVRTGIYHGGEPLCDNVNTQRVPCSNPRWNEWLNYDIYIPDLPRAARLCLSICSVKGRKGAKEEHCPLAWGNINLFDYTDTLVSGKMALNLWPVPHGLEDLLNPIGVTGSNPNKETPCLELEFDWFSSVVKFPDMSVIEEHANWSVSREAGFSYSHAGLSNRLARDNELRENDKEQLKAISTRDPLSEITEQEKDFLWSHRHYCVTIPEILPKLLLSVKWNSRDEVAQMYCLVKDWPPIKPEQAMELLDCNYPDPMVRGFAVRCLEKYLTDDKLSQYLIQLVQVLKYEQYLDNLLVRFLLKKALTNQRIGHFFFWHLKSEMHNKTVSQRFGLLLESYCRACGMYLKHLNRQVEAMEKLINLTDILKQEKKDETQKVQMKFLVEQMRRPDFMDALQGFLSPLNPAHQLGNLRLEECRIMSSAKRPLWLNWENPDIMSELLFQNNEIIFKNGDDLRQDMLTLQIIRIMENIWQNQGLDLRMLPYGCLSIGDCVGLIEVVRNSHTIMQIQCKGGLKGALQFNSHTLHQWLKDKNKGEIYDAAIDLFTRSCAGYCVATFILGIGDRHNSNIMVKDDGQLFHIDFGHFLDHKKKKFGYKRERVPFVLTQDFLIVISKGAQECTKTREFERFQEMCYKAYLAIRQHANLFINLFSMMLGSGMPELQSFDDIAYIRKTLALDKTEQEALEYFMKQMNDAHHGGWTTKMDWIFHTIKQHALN
PI3Kα (alpha), sequence (P27986 whole entry partner): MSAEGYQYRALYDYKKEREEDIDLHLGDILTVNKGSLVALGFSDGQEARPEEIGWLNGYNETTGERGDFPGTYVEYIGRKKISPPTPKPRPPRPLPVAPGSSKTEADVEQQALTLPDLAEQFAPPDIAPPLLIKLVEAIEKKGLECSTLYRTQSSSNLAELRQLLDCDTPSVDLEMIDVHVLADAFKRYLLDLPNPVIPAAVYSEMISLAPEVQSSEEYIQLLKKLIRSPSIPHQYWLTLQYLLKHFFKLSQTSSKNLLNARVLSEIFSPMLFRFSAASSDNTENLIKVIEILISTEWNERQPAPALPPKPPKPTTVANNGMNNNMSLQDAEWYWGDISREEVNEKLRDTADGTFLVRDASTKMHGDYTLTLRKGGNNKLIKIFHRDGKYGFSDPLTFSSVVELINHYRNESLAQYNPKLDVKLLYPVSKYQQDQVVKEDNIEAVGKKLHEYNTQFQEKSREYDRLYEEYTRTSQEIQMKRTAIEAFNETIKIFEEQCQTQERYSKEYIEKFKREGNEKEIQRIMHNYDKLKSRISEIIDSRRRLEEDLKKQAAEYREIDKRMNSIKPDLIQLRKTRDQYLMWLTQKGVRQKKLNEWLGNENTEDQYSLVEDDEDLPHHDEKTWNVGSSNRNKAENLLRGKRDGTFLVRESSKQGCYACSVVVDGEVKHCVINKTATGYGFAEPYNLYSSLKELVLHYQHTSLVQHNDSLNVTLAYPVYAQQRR

Ki [1] [nM] | Ki [nM] | Compound
0.237 | – | NC(=O)[C@@H]1CCCN1c1cc2c3c(c1)nc(-c1ccc(-c4nc[nH]n4)cc1)n3CCCO2 [Example 221, (S)-1-(1-(4-(1H-1,2,4-Triazol-3-yl)phenyl)-8,9-dihydro-7H-6-oxa-2,9a-diazabenzo[cd]azulen-4-yl)pyrrolidine-2-carboxamide]
0.261 | – | NC(=O)[C@@H]1CCCN1c1cc2c3c(c1)nc(-c1ccc(-c4nc[nH]n4)c(Cl)c1)n3CCCO2 [Example 222, (S)-1-(1-(3-Chloro-4-(1H-1,2,4-triazol-3-yl)phenyl)-8,9-dihydro-7H-6-oxa-2,9a-diazabenzo[cd]azulen-4-yl)pyrrolidine-2-carb oxamide]
74.6 | – | NC(=O)[C@@H]1CCCN1c1cc2c3c(c1)nc(-c1ccc(-c4cn[nH]c4)nc1)n3CCCO2 [Example 223, (S)-1-(1-(6-(1H-Pyrazol-4-yl)pyridin-3-yl)-8,9-dihydro-7H-6-oxa-2,9a-diazabenzo[cd]azulen-4-yl)pyrrolidine-2-carboxamide]
1.62 | – | CCc1cc(-c2nc3cc(N4CCC[C@H]4C(N)=O)cc4c3n2CCCO4)cc2nc(N)oc12 [Example 224, (S)-1-(1-(2-Amino-7-ethylbenzo[d]oxazol-5-yl)-8,9-dihydro-7H-6-oxa-2,9a-diazabenzo[cd]azulen-4-yl)pyrrolidine-2-carb oxamide]
0.431 | – | CCc1cc(-c2nc3cc(N[C@H](C(N)=O)C4CC4)cc4c3n2CCCO4)cc2nc(N)oc12 [Example 225, (S)-2-((1-(2-Amino-7-ethylbenzo[d]oxazol-5-yl)-8,9-dihydro-7H-6-oxa-2,9a-diazabenzo[cd]azulen-4-yl)amino)-2-cyclopropylacetamide]
0.393 | – | NC(=O)[C@@H]1CCCN1c1cc2c3c(c1)nc(-c1ccc(-c4nc[nH]n4)cn1)n3CCCO2 [Example 226, (S)-1-(1-(5-(1H-1,2,4-Triazol-3-yl)pyridin-2-yl)-8,9-dihydro-7H-6-oxa-2,9a-diazabenzo[cd]azulen-4-yl)pyrrolidine-2-carb oxamide]
8.21 | – | NC(=O)[C@@H]1CCCN1c1cc2c3c(c1)nc(-c1ccc(-c4ncsn4)cc1)n3CCCO2 [Example 227, (S)-1-(1-(4-(1,2,4-Thiadiazol-3-yl)phenyl)-8,9-dihydro-7H-6-oxa-2,9a-diazabenzo[cd]azulen-4-yl)pyrrolidine-2-carboxamide]
2.66 | – | NC(=O)[C@@H](Nc1cc2c3c(c1)nc(-c1ccn4nccc4n1)n3CCCO2)C1CC1 [Example 228, (S)-2-Cyclopropyl-2-((1-(pyrazolo[1,5-a]pyrimidin-5-yl)-8,9-dihydro-7H-6-oxa-2,9a-diazabenzo[cd]azulen-4-yl)amino)acetamide]
6.88 | – | NC(=O)[C@@H]1CCCN1c1cc2c3c(c1)nc(-c1ccc(-c4cc[nH]n4)cc1)n3CCCO2 [Example 229, (S)-1-(1-(4-(1H-Pyrazol-3-yl)phenyl)-8,9-dihydro-7H-6-oxa-2,9a-diazabenzo[cd]azulen-4-yl)pyrrolidine-2-carboxamide]
83.7 | – | NC(=O)[C@@H]1CCCN1c1cc2c3c(c1)nc(-c1ccc(N4CCNC4=O)cc1)n3CCCO2 [Example 234, (S)-1-(1-(4-(2-Oxoimidazolidin-1-yl)phenyl)-8,9-dihydro-7H-6-oxa-2,9a-diazabenzo[cd]azulen-4-yl)pyrrolidine-2-carboxamide]
0.209 | – | NC(=O)[C@@H](Nc1cc2c3c(c1)nc(-c1cc(C(F)(F)F)c4oc(N)nc4c1)n3CCCO2)C1CC1 [Example 235, (S)-2-((1-(2-Amino-7-(trifluoromethyl)benzo[d]oxazol-5-yl)-8,9-dihydro-7H-6-oxa-2,9a-diazabenzo[cd]azulen-4-yl)amino)-2-cyclopropylacetamide]
21 | – | COc1ccc(CNC(=O)[C@@H]2CCCN2c2cc3c4c(c2)nc(-c2ccc5oc(N)nc5c2)n4CCCO3)cc1 [Example 236, (S)-1-(1-(2-Aminobenzo[d]oxazol-5-yl)-8,9-dihydro-7H-6-oxa-2,9a-diazabenzo[cd]azulen-4-yl)-N-(4-methoxybenzyl)pyrrolidine-2-carb oxamide]
137 | – | NC(=O)[C@@H]1CCCN1c1cc2c3c(c1)nc(-c1ccc4c(=O)[nH]oc4c1)n3CCCO2 [Example 237, (S)-1-(1-(3-Oxo-2,3-dihydrobenzo[d]isoxazol-6-yl)-8,9-dihydro-7H-6-oxa-2,9a-diazabenzo[cd]azulen-4-yl)pyrrolidine-2-carb oxamide]
0.045 | – | C[C@@H]1Cn2c(-c3ccc4oc(N)nc4c3)nc3cc(N[C@H](C(N)=O)C4CC4)cc(c32)O1 [Example 238, (S)-2-(((R)-2-(2-Aminobenzo[d]oxazol-5-yl)-4-methyl-3,4-dihydro-5-oxa-1,2a-diazaacenaphthylen-7-yl)amino)-2-cyclopropylacetamide]
1.61 | – | C[C@H](Oc1cc2c3c(nc(-c4ccc5oc(N)nc5c4)n3CCCO2)c1F)C(N)=O [Example 240, (S)-2-((1-(2-Aminobenzo[d]oxazol-5-yl)-3-fluoro-8,9-dihydro-7H-6-oxa-2,9a-diazabenzo[cd]azulen-4-yl)oxy)propanamide]
< 0.02 | – | C[C@H](Oc1cc2c3c(c1)nc(-c1ccc4oc(N)nc4c1F)n3CCCCO2)C(N)=O [Example 241, (S)-2-((1-(2-Amino-4-fluorobenzo[d]oxazol-5-yl)-7,8,9,10-tetrahydro-6-oxa-2,10a-diazacycloocta[cd]inden-4-yl)oxy)propanamide]
< 0.02 | – | C[C@H](Oc1cc2c3c(c1)nc(-c1cc(F)c4nc(N)sc4c1)n3CCCCO2)C(N)=O [Example 242, (S)-2-((1-(2-Amino-4-fluorobenzo[d]thiazol-6-yl)-7,8,9,10-tetrahydro-6-oxa-2,10a-diazacycloocta[cd]inden-4-yl)oxy)propanamide]
< 0.02 | – | C[C@H](Oc1cc2c3c(c1)nc(-c1ccc(-c4nc[nH]n4)cc1)n3CCCCO2)C(N)=O [Example 243, (S)-2-((1-(4-(1H-1,2,4-Triazol-3-yl)phenyl)-7,8,9,10-tetrahydro-6-oxa-2,10a-diazacycloocta[cd]inden-4-yl)oxy)propanamide]
< 0.02 | – | C[C@H](Oc1cc2c3c(c1)nc(-c1ccc4nc(N)cnc4c1)n3CCCCO2)C(N)=O [Example 244, (S)-2-((1-(2-Aminoquinoxalin-6-yl)-7,8,9,10-tetrahydro-6-oxa-2,10a-diazacycloocta[cd]inden-4-yl)oxy)propanamide]
0.032 | – | C[C@@H](Oc1cc2c3c(c1)nc(-c1ccc4oc(N)nc4c1)n3CCCCO2)C(N)=O [Example 245, (R)-2-((1-(2-Aminobenzo[d]oxazol-5-yl)-7,8,9,10-tetrahydro-6-oxa-2,10a-diazacycloocta[cd]inden-4-yl)oxy)propanamide]
< 0.02 | – | NC(=O)[C@@H](Nc1cc2c3c(c1)nc(-c1ccc4sc(N)nc4c1)n3CCCCO2)C1CC1 [Example 246, (S)-2-((1-(2-Aminobenzo[d]thiazol-5-yl)-7,8,9,10-tetrahydro-6-oxa-2,10a-diazacycloocta[cd]inden-4-yl)amino)-2-cyclopropylacetamide]
– | 0.024 | NC(=O)[C@@H]1CCCN1c1cc2c3c(nc(-c4ccc5oc(N)nc5c4)n3CCCCO2)c1F [Example 247, (S)-1-(1-(2-Aminobenzo[d]oxazol-5-yl)-3-fluoro-7,8,9,10-tetrahydro-6-oxa-2,10a-diazacycloocta[cd]inden-4-yl)pyrrolidine-2-carboxamide]
0.03 | – | C[C@H](Oc1cc2c3c(c1)nc(-c1ccc4nc(N)sc4c1)n3CCCCO2)C(N)=O [Example 248, (S)-2-((1-(2-Aminobenzo[d]thiazol-6-yl)-7,8,9,10-tetrahydro-6-oxa-2,10a-diazacycloocta[cd]inden-4-yl)oxy)propanamide]
< 0.02 | – | C[C@H](Oc1cc2c3c(c1)nc(-c1cc(F)c4oc(N)nc4c1)n3CCCCO2)C(N)=O [Example 249, (S)-2-((1-(2-Amino-7-fluorobenzo[d]oxazol-5-yl)-7,8,9,10-tetrahydro-6-oxa-2,10a-diazacycloocta[cd]inden-4-yl)oxy)propanamide]
< 0.02 | – | NC(=O)[C@@H]1CCCN1c1cc2c3c(c1)nc(-c1ccc4oc(N)nc4c1)n3CCCCO2 [Example 250, (S)-1-(1-(2-Aminobenzo[d]oxazol-5-yl)-7,8,9,10-tetrahydro-6-oxa-2,10a-diazacycloocta[cd]inden-4-yl)pyrrolidine-2-carboxamide]
2.27 | – | C[C@@H]1Cn2c(-c3ccc4oc(N)nc4c3)nc3cc(O[C@H](C)C(N)=O)cc(c32)O1 [Example 251, (R)-2-(((R)-2-(2-Aminobenzo[d]oxazol-5-yl)-4-methyl-3,4-dihydro-5-oxa-1,2a-diazaacenaphthylen-7-yl)oxy)propanamide]
0.221 | – | C[C@@H]1Cn2c(-c3ccc4oc(N)nc4c3)nc3cc(O[C@@H](C)C(N)=O)cc(c32)O1 [Example 252, (S)-2-(((R)-2-(2-Aminobenzo[d]oxazol-5-yl)-4-methyl-3,4-dihydro-5-oxa-1,2a-diazaacenaphthylen-7-yl)oxy)propanamide]
< 0.02 | – | C[C@@H](C(N)=O)N(C)c1cc2c3c(c1)nc(-c1ccc4oc(N)nc4c1)n3CCCCO2 [Example 254, (S)-2-((1-(2-Aminobenzo[d]oxazol-5-yl)-7,8,9,10-tetrahydro-6-oxa-2,10a-diazacycloocta[cd]inden-4-yl)(methyl)amino)propanamide]
0.149 | – | C[C@@H](C(N)=O)N(C)c1cc2c3c(c1)nc(-c1ccc4nc(N)sc4c1)n3CCCCO2 [Example 255, (S)-2-((1-(2-Aminobenzo[d]thiazol-6-yl)-7,8,9,10-tetrahydro-6-oxa-2,10a-diazacycloocta[cd]inden-4-yl)(methyl)amino)propanamide]

Compound | Ki [1] [nM] | Ki [nM]
Nc1nc2cc(-n3nc4cc(Br)cc5c4c3CCCO5)ccc2o1 [Example 253, 5-(4-Bromo-8,9-dihydrooxepino[4,3,2-cd]indazol-1(7H)-yl)benzo[d]oxazol-2-amine] | 50.8 | –
